“Also recorded” adds a separate entry of the source.

The test system of one data set is c-peptide. Description: c-peptide/glucagon immunofluorescence of pancreatic islets, HF-fed mice. The class given is in vivo. On the procedure: Immunofluorescence assays on cells and tissue sections were performed as previously described (29). Briefly, differentiated samples were fixed using 4% (w/v) paraformaldehyde and membrane permeabilization (for cells only) was done with 0.3% (w/v) Triton-X 100 (Sigma). Unspecific sites were blocked using 2% BSA for 30 min prior to incubation with rabbit polyclonal anti-PDX1 (Millipore, 06-1379, 1:1000), rabbit anti-C-Peptide (Cell Signaling, 4593, 1:500, Danvers, Mass.) and mouse monoclonal anti-Glucagon (Abcam, ab10988, 1:200) primary antibodies. Phalloidin-TRITC (Millipore, FAK100, 1:1000, Billerica, Mass.) was used to stain the actin stress fiber network (F-actin). Nuclei were stained using DAPI contained in Vectashield® mounting medium for fluorescence (Vector labs, Burlingame, Calif.). Quantitation of C-peptide positive stained cells and islet surface area was performed using MS-Elements Advanced Research software (Nikon).
WT male C57/BL6 male mice were maintained on either a standard laboratory chow-fed diet (CFD) with 13% kcal fat, (diet #5053, Lab Diet, Inc, St. Louis, Mo.) or a high fat, western style diet (HFD) with 60% kcals from fat, (diet #58126, Lab Diet, Inc., St. Louis, Mo.) for 4 months. […]

Data set [1] relates to 4-hydroxynonenal (4-HNE). The data set is described as follows: 4-HNE staining of kidney sections. The class given is in vivo, mice. The note with it: HF diet + AC261066 vs HF diet group. The source says:
(§1) WT male C57/BL6 male mice were maintained on either a standard laboratory chow-fed diet (CFD) with 13% kcal fat, (diet #5053, Lab Diet, Inc, St. Louis, Mo.) or a high fat, western style diet (HFD) with 60% kcals from fat, (diet #58126, Lab Diet, Inc., St. Louis, Mo.) for 4 months. One month after the start of the high fat diet treatment, the high fat diet group was further split into 2 groups for 3 months: i) high fat diet and the drinking water containing 1% DMSO; ii) high fat diet and the drinking water containing 1.5 mg/100 ml AC261066, a specific RARβ agonist. Then mice were sacrificed by cervical dislocation. Blood and various tissue samples were harvested.
Paraffin-embedded sections (from two to four mice per group) were deparaffinized and rehydrated, and antigen retrieval was performed using an antigen unmasking solution (Vector Laboratories, H-3300). After quenching endogenous peroxidase with 3% H2O2, the tissue sections were blocked with the blocking reagent (from the M.O.M. kit from Vector Laboratories). Then, tissue sections were incubated with a 4-HNE antibody (1:400; mouse monoclonal antibody; Abcam, ab48506) overnight at 4° C. The sections were then incubated with secondary antibodies (1:200, anti-mouse IgG from the M.O.M kit). As a negative control, sections were stained without incubation with primary antibodies. […]

Data set [2] is described as follows: Serum triglyceride level measurement. To be noted: HF+AC261066 feeding vs CF controls. The class given is in vivo, mice.
From the text: as §1
The analysis of serum triglyceride levels was carried out using a bichromatic assay at the Laboratory of Comparative Pathology of the Memorial Sloan-Kettering Cancer Center. Chow-fed diet (CFD) n=2; high fat diet (HFD) n=3; high fat diet+AC261066 (HFDAC) n=5.

Data set [3] deals with 4-hydroxynonenal (4-HNE). The data set is described as follows: 4-HNE staining of pancreas sections, HF-fed mice. The note with it: HF diet mice, AC261066 1.5 mg/100 ml drinking water 3 months; vs HF-vehicle. The class given is in vivo. On the procedure: AC261066 was dissolved in dimethyl sulfoxide (DMSO) at the concentration of 1.5 mg/ml, and diluted in the drinking water for mice to the final concentration of 1.5 mg/100 ml.
as §1
Paraffin-embedded sections (from two to four mice per group) were deparaffinized and rehydrated, and antigen retrieval was performed using an antigen unmasking solution (Vector Laboratories, H-3300). After quenching endogenous peroxidase with 3% H2O2, the tissue sections were blocked with the blocking reagent (from the M.O.M. kit from Vector Laboratories). Then, tissue sections were incubated with a 4-HNE antibody (1:400; mouse monoclonal antibody: Abcam, ab48506) overnight at 4° C. […]

The next data set concerns TNF-α. The data set is described as follows: Semi-quantitative PCR kidney, TNF-α. Format: in vivo. To be noted: HF diet mice + AC261066.
From the text: as §1
(§2) Total RNA was extracted from mouse tissues using TRIzol reagent (Life technologies) and (1 μg) was used to synthesize cDNA. cDNA synthesis was performed at 42° C. for 1 h in a final volume of 20 μl using qScript (Quanta, MD). Semi-quantitative PCR were performed Taq DNA polymerase (Invitrogen. CA). Three step PCR was run as follows: 94° C. for 30 s, 58-64° C. for 45 s for primer annealing and 72° C. for 1 min for primer extension. The number of cycles for each primer pair for amplification in the linear range was determined experimentally. PCR products were resolved on 2% agarose gels and visualized by staining with ehtidium bromide. Primers for gene expression used were as follows: […]

In another data set the test system is LRAT. The data set is described as follows: Semi-quantitative PCR kidney, LRAT. Format: in vivo. The note with it: HF diet mice + AC261066.
From the text: as §1, §2

Another data set has as its system RARβ2. The data set is described as follows: Semi-quantitative PCR of pancreatic tissue, LRAT -/- vitamin A deficient mice. The note with it: AC261066 for 8 weeks. The class given is in vivo. On the procedure:
FIG. 10. Gene expression of RARβ2 in pancreatic tissue from LRAT −/− vitamin A sufficient mice (VAS, normal control diet), LRAT −/− vitamin A deficient (VAD) mice, and LRAT −/− vitamin A deficient (VAD) mice treated with AC261066 for 8 weeks.
as §2, with “(Invitrogen,” for “(Invitrogen.”

For the next data set, the system named is renal lipid accumulation. The data set is described as follows: Hematoxylin and eosin staining of kidney sections. To be noted: HF diet mice + AC261066 or CD1530; vs HF-vehicle. Format: in vivo.
From the text: as §1
At sacrifice, fresh mouse liver samples were fixed in 4% formaldehyde solution for 24 hr and embedded in paraffin blocks. Kidney paraffin sections were cut 5 microns thick and mounted on glass slides and stained with hematoxylin and eosin (H and E) using standard protocols.

Regarding `CCCCOCCOc1nc(-c2ccc(C(=O)O)c(F)c2)sc1C` [AC261066], the “c-peptide level in pancreatic islets” value in the data set with c-peptide (HF diet + AC261066 vs HF diet mice) is given as “slightly reduces expression of c-peptide; also recorded: slightly decreased c-peptide level”. Besides, in the data set on c-peptide (HF+AC261066 fed mice vs control diet controls), the “c-peptide staining in pancreatic islets” value is “marked increase in c-peptide staining”. Also, the “4-HNE levels (oxidative stress) in kidneys” value in the data set with 4-hydroxynonenal (4-HNE) [1] is “reduces oxidative stress (ROS); also recorded: lower 4-HNE levels than those from the high fat diet group”. In addition, in data set [2], the serum triglyceride levels result is “does not increase triglyceride levels; also recorded: does not affect serum triglyceride levels”. The “4-HNE staining intensity (oxidative stress) in pancreatic islets” value in the data set with 4-hydroxynonenal (4-HNE) [3] is “reduces oxidative stress in the pancreatic islets; also recorded: markedly lower 4-HNE staining intensity levels”. In addition, in the data set on TNF-α, the “mRNA levels of TNF-α in kidney” value is reported as “reduces the levels of TNF-alpha”. In addition, the “LRAT mRNA levels in kidney” value in the data set on LRAT is “restores RAR beta and LRAT mRNA levels”. Further, the “RARβ2 mRNA levels in pancreas” value in the data set with RARβ2 is given as “increased the RARβ2 mRNA levels”. Moreover, the “renal lipid infiltration/accumulation (H and E)” value with renal lipid accumulation is “diminished renal lipid accumulation; also recorded: markedly decreased renal lipid infiltration”.

For the origin of these results see patent US11207277B2, “Methods of treating diseases associated with high-fat diet and vitamin a deficiency using retinoic acid receptor agonists” (Cornell University, priority 2013, dated 2021).
